From patent EP0680339B1, “ECTOPARASITICIDAL FORMULATION” (priority 1993, dated 1994)

What was measured:
sheep body louse D. ovis = experiment: Example 3, varying concentration of active: lice counts on sheep; assay type: in vivo, Damalinia ovis
Experimental: Testing for ectoparasite infestation was carried out by counting the number of parasites present in 20 partings taken on each side of the sheep (40 partings in total).
In order to determine the minimum effective concentration of active agent possible upon application of 150 mL/50 kg sheep, the following formulations were prepared: […]
For each of Examples 3A-E, the treatments were applied immediately after shearing along the backline in 4-6 strips (depending on the volume to be applied. Details are as follows:
Treatments were applied using the NZ Protector dial-a-dose drench/pour-on gun.
Once treated, each group was penned separately in electrified paddocks where they were kept for the duration of the trial.
Lice counts were performed pre-shearing 7, 14, 21, 28, 35 and 42 days after treatment using the 20 partings per side technique.
Percentage reduction in lice counts was calculated using the change in lice counts for the control group as a correction factor, using the formula given in example 1.

[1] = Example 6, degree of translocation: diazinon levels in wool and skin scrapings; assay type: in vivo, sheep; conditions: for DIAZINON (PPM) - WHOLE WOLL BELLY-LINE MEAN / DIAZINON (PPM) - WHOLE WOLL MIDLINE MEAN: Example 6 formulation, 3mL per kg
Experimental: A 3 year old merino was shorn, weighed and treated immediately with the diazinon spray-on. It had not received any insecticide treatment for 12 months. The sheep weighed 37 kg and was treated with 110mL of the product. A wide band was applied from high on the neck, behind the ears, to the butt of the tail at a dosage rate of 3mL per kg bodyweight.
The animal was hand restrained during treatment and placed under cover in a pen with mesh floor and sides for the duration of the trial.
During and after treatment, the sheep had no contact with other treated animals and was not exposed to any rain.
On advice from the State Chemistry Laboratory, Department of Agriculture, Victoria, approximately 2cm square scrapings of wool and skin were taken as follows:
The values (PPM diazinon) are reported on a whole wool basis.
The approximate concentration in wool grease can be calculated on the basis of the average wool grease content of the wool is 18.4% w/w ie., multiply the individual results by a factor of 5.4.

CCOP(=S)(OCC)Oc1cc(C)nc(C(C)C)n1 [Diazinon]
eradication of the sheep body louse D. ovis (sheep body louse D. ovis; 10 mg/kg (0.33% w/w)): failed to eradicate
eradication of the sheep body louse D. ovis (sheep body louse D. ovis; 15 mg/kg (0.5% w/w)): failed to eradicate
DIAZINON (PPM) - WHOLE WOLL (MEAN VALUES) BELLY-LINE LEFT ([1]; 1 day post treatment): 407 PPM
DIAZINON (PPM) - WHOLE WOLL (MEAN VALUES) BELLY-LINE RIGHT ([1]; 1 day post treatment): 190 PPM
DIAZINON (PPM) - WHOLE WOLL (MEAN VALUES) MIDLINE LEFT ([1]; 1 day post treatment): 808 PPM
DIAZINON (PPM) - WHOLE WOLL (MEAN VALUES) MIDLINE RIGHT ([1]; 1 day post treatment): 330 PPM
DIAZINON (PPM) - WHOLE WOLL BELLY-LINE MEAN ([1]; 1 day post treatment): 298 PPM
DIAZINON (PPM) - WHOLE WOLL MIDLINE MEAN ([1]; 1 day post treatment): 569 PPM
DIAZINON (PPM) - WHOLE WOLL (MEAN VALUES) BELLY-LINE LEFT ([1]; 3 days post treatment): 185 PPM
DIAZINON (PPM) - WHOLE WOLL (MEAN VALUES) BELLY-LINE RIGHT ([1]; 3 days post treatment): 112 PPM
DIAZINON (PPM) - WHOLE WOLL (MEAN VALUES) MIDLINE LEFT ([1]; 3 days post treatment): 496 PPM
DIAZINON (PPM) - WHOLE WOLL (MEAN VALUES) MIDLINE RIGHT ([1]; 3 days post treatment): 323 PPM
DIAZINON (PPM) - WHOLE WOLL BELLY-LINE MEAN ([1]; 3 days post treatment): 148.5 PPM
DIAZINON (PPM) - WHOLE WOLL MIDLINE MEAN ([1]; 3 days post treatment): 410 PPM
DIAZINON (PPM) - WHOLE WOLL (MEAN VALUES) BELLY-LINE LEFT ([1]; 7 days post treatment): 287 PPM
DIAZINON (PPM) - WHOLE WOLL (MEAN VALUES) BELLY-LINE RIGHT ([1]; 7 days post treatment): 216 PPM
DIAZINON (PPM) - WHOLE WOLL (MEAN VALUES) MIDLINE LEFT ([1]; 7 days post treatment): 503 PPM
DIAZINON (PPM) - WHOLE WOLL (MEAN VALUES) MIDLINE RIGHT ([1]; 7 days post treatment): 237 PPM
DIAZINON (PPM) - WHOLE WOLL BELLY-LINE MEAN ([1]; 7 days post treatment): 251.2 PPM
DIAZINON (PPM) - WHOLE WOLL MIDLINE MEAN ([1]; 7 days post treatment): 370 PPM
diazinon in whole wool, belly-line right rump ([1]; Day 1): 53 PPM
diazinon in the wool grease, belly-line right rump ([1]; Day 1, whole wool value multiplied by 5.4): 286 PPM
